PMC5907398, “Inhibition of Acetylcholinesterase and Butyrylcholinesterase by a Plant Secondary Metabolite Boldine” (BioMed Research International, 2018)
pIC50: −log10 of the molar value.

Assays:
[1] = target: T1, Acetylcholinesterase (AChE) (Homo sapiens, UniProt P22303); assay: Ellman spectrophotometric assay with acetylthiocholine, Dixon plot; assay type: biochemical; conditions: read-out: IC50 (μmol/l) by spectrophotometry
T1 construct: human, recombinant (expressed in HEK 293 cells)

[2] = target: T2, Butyrylcholinesterase (BChE) (Homo sapiens, UniProt P06276); assay: Ellman spectrophotometric assay with butyrylthiocholine, Dixon plot; assay type: biochemical; conditions: read-out: IC50 (μmol/l) by spectrophotometry
T2 construct: from human serum
T2 sequence (P06276 29-602): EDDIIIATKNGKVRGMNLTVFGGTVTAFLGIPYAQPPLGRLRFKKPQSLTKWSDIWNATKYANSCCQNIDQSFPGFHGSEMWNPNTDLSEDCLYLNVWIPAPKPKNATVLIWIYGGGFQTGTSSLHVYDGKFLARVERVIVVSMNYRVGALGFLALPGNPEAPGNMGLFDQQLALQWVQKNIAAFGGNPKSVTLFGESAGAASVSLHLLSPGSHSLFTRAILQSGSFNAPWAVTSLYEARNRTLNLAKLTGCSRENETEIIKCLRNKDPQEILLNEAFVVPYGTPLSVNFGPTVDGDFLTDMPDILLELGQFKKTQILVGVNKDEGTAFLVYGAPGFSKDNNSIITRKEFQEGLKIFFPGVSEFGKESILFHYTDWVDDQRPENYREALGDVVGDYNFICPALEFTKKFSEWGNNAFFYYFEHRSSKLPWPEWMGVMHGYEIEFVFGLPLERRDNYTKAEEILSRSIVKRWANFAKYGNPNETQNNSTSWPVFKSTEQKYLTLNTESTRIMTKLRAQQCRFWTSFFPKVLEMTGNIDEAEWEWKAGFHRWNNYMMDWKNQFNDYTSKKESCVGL

T1 sequence (P22303 32-614): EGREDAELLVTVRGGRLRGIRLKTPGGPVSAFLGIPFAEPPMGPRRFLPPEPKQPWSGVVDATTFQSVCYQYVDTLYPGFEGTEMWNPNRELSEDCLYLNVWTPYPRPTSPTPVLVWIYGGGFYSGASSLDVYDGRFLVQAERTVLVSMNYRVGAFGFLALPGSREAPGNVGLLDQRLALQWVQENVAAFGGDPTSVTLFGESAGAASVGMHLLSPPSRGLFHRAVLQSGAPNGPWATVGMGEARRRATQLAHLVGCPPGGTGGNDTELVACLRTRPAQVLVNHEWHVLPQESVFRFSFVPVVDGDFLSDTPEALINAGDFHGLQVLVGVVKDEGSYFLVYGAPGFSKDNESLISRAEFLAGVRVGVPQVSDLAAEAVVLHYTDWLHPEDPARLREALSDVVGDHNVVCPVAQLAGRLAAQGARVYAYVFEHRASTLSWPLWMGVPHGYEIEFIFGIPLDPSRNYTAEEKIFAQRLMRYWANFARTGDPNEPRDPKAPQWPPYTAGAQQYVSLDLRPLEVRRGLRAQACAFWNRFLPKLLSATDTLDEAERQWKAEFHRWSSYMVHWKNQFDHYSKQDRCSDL

SMILES: COc1cc2c(cc1O)C[C@H]1c3c(cc(O)c(OC)c3-2)CCN1C [boldine, (S)-2,9-dihydroxy-1,10-dimethoxy-aporphine]
- pIC50 [1]: 3.43
- pIC50 [2]: 3.49
